{
  "source": "patent US20190183910A1",
  "about": "“ENHANCING DNA REPAIR AND PREVENTING AGING AND ITS CONSEQUENCES IN REPRODUCTIVE AND OTHER CELLS” (NEW YORK MEDICAL COLLEGE, priority 2016, published 2019)",
  "key": {"mouse sperm [1]": {"test_system": "mouse sperm", "assay": "DNA DSBs by γH2AX expression in S1P-treated mouse sperm", "type": "cell-based", "conditions": "for DNA DSBs as reported by γH2AX expression: culture 1 hour, n=9, mean±SEM", "method": "(§1) Treatment was performed with genotoxic stress (1 mM H2O2), S1P (200 μM), and S1P with genotoxic stress and control in culture for one hour. Also, the use of an ATM inhibitor was utilized (10 μM) (KU-55593, Abcam) (Li et al., 2014). We assessed DNA damage, apoptosis, and chromatin integrity. We also studied the DNA DSB repair gene expression by qRT-PCR in sperm lysates.\nDNA damage assessment of testicular tissue from mice utilized a Ser139 phosphorylation-specific γH2AX antibody (IHC-00059; Bethyl Laboratories) performed with enzymatic diaminobenzidine staining (Vector). Histone H2AX, one of the several variants of the nucleosome core histone H2A, becomes phosphorylated on Ser139 in response to DSBs (γH2AX). Within seconds of DSB formation, γH2AX foci are formed at the site of DNA damage, which can be detected by confocal microscopy or immunohistochemistry to quantify DNA damage. Foci of γH2AX represent DDR in a 1:1 manner, enabling sensitive quantification of potential DSBs (Katsube et al., 2014). Primordial follicles containing a γH2AX-positive oocyte were considered to be DNA-damaged (Rogakou et al., 1998). Sperm were assessed for DNA damage with antibody to γH2AX (613402; BioLegend) and secondary antibody Alexa Fluor 488 (A-11029; Invitrogen), followed by nuclear counterstaining with diamidino-2-phenylindole (DAPI; Fisher Scientific). Immunofluorescence for SD sperm samples was measured by FACScan flow cytometer (Becton-Dickinson) or laser scanning cytometry (Halicka et al., 2008)."}, "DMC1": {"test_system": "DMC1", "assay": "qRT-PCR DNA DSB repair gene expression in mouse sperm lysates, DMC1", "type": "cell-based", "method": "as §1\n(§2) Sperm pellets previously snap-frozen in PBS were thawed. RNA was extracted using the trizol method (Rio et al., 2010). The quality and quantity of the RNA were measured with NanoDrop 2000 from Thermo Scientific. RNA (2 μg) from each sample was taken for reverse transcription with dTVN and N9 primers and SuperScript III reverse transcriptase, all procured from Invitrogen. The resulting cDNA was used to perform real-time qPCR with SYBR Green on an Applied Biosystems 7900HT Real-Time PCR machine was used. To determine the relative expression of various DNA repair genes in mouse sperm, we used the ΔΔCt method, which makes use of the expression of housekeeping genes. GAPDH was used as housekeeping gene. Primers were procured from Integrated DNA technologies (IDT) (Table 3)."}, "RAD51": {"test_system": "RAD51", "assay": "qRT-PCR DNA DSB repair gene expression in mouse sperm lysates, RAD51", "type": "cell-based", "method": "as §1, §2"}, "ATM": {"test_system": "ATM", "assay": "qRT-PCR DNA DSB repair gene expression in mouse sperm lysates, ATM", "type": "cell-based", "method": "as §1, §2"}, "mouse sperm [2]": {"test_system": "mouse sperm", "assay": "Alkaline comet assay on mouse sperm", "type": "cell-based", "conditions": "for percent tail DNA, alkaline comet: mouse sperm, n=9, mean±SEM", "method": "as §1\nSlides were prepared 48 hours prior to experimentation by coating normal glass microscope slides with 500 μl normal melting point agar (0.5% w/v in PBS) solution and left to dry at room temperature for no less than 48 hours. Then, 10 μl of mouse sperm suspension was mixed with 90 μl of 0.5% LMPA. Then this 100 μl solution was added to the NMPA-coated slides. Coverslips were added and slides were placed on a metallic tray on ice and in the dark for 5 minutes. The cover slips were removed and a 90 μl layer of LMPA was added. Cover slips were subsequently replaced before the LMPA hardened. Slides were then kept in the dark on ice again for another 5 minutes. After ten minutes, the cover slips were removed and slides were placed in staining jars containing ice cold lysing solution (2.5 M NaCl, 200 mM NaOH, 100 mM EDTA, 10 mM Trizma Base, 1% Triton X-100 and 10% DMSO [pH 10]) for 1.5 hours at 4° C. in a dark place.\nAfter this lysis step, the slides were washed three times for 5 minutes with TE buffer (pH 8.0), and then placed flatly in the electrophoresis tank face up for 30 minutes to achieve the unwinding of the DNA. The alkaline electrophoresis buffer in this tank included 300 mM NaOH and 1 mM EDTA [pH13]. This incubation period was used to achieve the alkaline unwinding of the DNA. Electrophoresis was then performed at 25 V, 300 mA for 30 minutes. After this, slides were washed twice in neutralization buffer (0.4 M Tris, pH 7.5) for 5 minutes each. Before analysis could occur, the sperm within the slides needed to be fixed by draining the slides well on paper towels and then subjecting them to two 10 minute washes in ethanol, and then air drying at room temperature for 5 minutes. Ethidium bromide (50 μl at 10 μg/ml in water) was then added on the slide, and sealed with a cover slip. Slides were kept moist, wrapped in aluminum foil to prevent light exposure, and stored at 4° C. until analysis (Williams et al., 2014).\nSlides from both alkaline and neutral comets were imaged by fluorescence microscopy using a Nikon OPTIPHOT microscope. ImageJ was used for comet assay analysis, which calculated tail length, tail moment, and % of DNA in the tail. […] To analyze the slides, an oval around the sperm head was drawn and calculated and then an oval around the sperm tail was drawn and calculated. […] It was calculated as the Pythagorean distance between two points. […]"}, "human sperm": {"test_system": "human sperm", "assay": "Alkaline comet assay on human sperm", "type": "cell-based", "conditions": "n=3, mean±SEM"}, "male germ cells": {"test_system": "male germ cells", "conditions": "S1P treatment to mouse testes (Otala et al., 2004); cited from earlier work"}, "oocytes": {"test_system": "oocytes", "conditions": "ex vivo (Morita et al., 2000; Tilly and Kolesnick, 2007); cited from earlier work"}, "[3]": {"conditions": "S1P with genotoxic stress, with ATM inhibitor, n=8, mean±SEM"}, "[4]": {"conditions": "S1P treatment, no ATM inhibitor"}, "[5]": {"conditions": "S1P with H2O2, without ATM inhibitor"}},
  "note": "Where “and” joins values, the source holds several entries; their conditions need not be identical. Equal entries are not always repeated.",
  "data": [
    {"molecule": "CCCCCCCCCCCCC/C=C/[C@@H](O)[C@@H](N)COP(=O)(O)O", "note": "[S1P, sphingosine 1 phosphate]", "values": [
      {"measurement": "DNA DSBs as reported by γH2AX expression", "setting": "mouse sperm [1]; S1P (200 μM) in the presence of genotoxic stress (1 mM H2O2)", "result": "8.29±1.45"},
      {"measurement": "DNA DSBs as reported by γH2AX expression", "setting": "mouse sperm [1]; S1P alone (200 μM)", "result": "8.94±1.48"},
      {"measurement": "DNA integrity (protective effect of S1P)", "setting": "mouse sperm [1]; in the presence of an ATM inhibitor (10 μM KU-55593), n=9", "result": "ATM inhibition reversed the protective effects"},
      {"measurement": "DMC1 expression (qRT-PCR)", "setting": "DMC1; S1P alone, with ATM inhibitor, n=8, mean±SEM", "result": "0.027±0.014"},
      {"measurement": "DMC1 expression (qRT-PCR)", "setting": "DMC1; S1P in the presence of genotoxic stress, n=9, mean±SEM", "result": "0.029±0.04"},
      {"measurement": "DMC1 expression (qRT-PCR)", "setting": "DMC1; [3]", "result": "0.0035±0.005"},
      {"measurement": "RAD51 expression (qRT-PCR)", "setting": "RAD51; [4]", "result": "no significant difference"},
      {"measurement": "RAD51 expression (qRT-PCR)", "setting": "RAD51; [3]", "result": "0.015±0.056"},
      {"measurement": "ATM expression (qRT-PCR)", "setting": "ATM; [4]", "result": "no significant difference"},
      {"measurement": "ATM gene expression (qRT-PCR)", "setting": "ATM; [3]", "result": "0.042±0.011"},
      {"measurement": "DNA damage, alkaline comet", "setting": "mouse sperm [2]; S1P-treated mouse sperm with ATM inhibitor", "result": "no significant difference"},
      {"measurement": "percent tail DNA, alkaline comet", "setting": "mouse sperm [2]; S1P alone, without ATM inhibitor", "result": "16.79±0.89", "unit": "%"},
      {"measurement": "percent tail DNA, alkaline comet", "setting": "mouse sperm [2]; [5]", "result": "16.8±0.87", "unit": "%"},
      {"measurement": "percent tail DNA, alkaline comet", "setting": "human sperm; S1P with H2O2, with ATM inhibitor", "result": "26.1±1.19", "unit": "%"},
      {"measurement": "percent tail DNA, alkaline comet", "setting": "human sperm; [5]", "result": "13.2±0.51% and 13.2±1.25%"},
      {"measurement": "male germ cell loss by radiation-induced injury", "setting": "male germ cells", "result": "decreased"},
      {"measurement": "ceramide induced apoptosis in oocytes", "setting": "oocytes", "result": "block ceramide induced apoptosis"}
    ]}
  ]
}
